Experimental data published in patent US11161811B2, “Process for preparing Mannich base quaternary ammonium salt high-temperature resistant corrosion inhibitor and applications thereof” (SOUTHWEST PETROLEUM UNIVERSITY, priority 2018, dated 2021).

Assays:
[1] = Compatibility with 20% hydrochloric acid system containing iron ion stabilizer, clay stabilizer and discharge aiding agent; assay type: physicochemical; details: 0.1 g in 20% hydrochloric acid system with citric acid, potassium chloride and OP-10 or fluorocarbon surfactant; 90° C.
Experimental: The water solubility of the corrosion inhibitor prepared by Embodiments 1 to 4 and its compatibility with the system containing the iron ion stabilizer, clay stabilizer and discharge aiding agent under 90° C. are determined. The process is as follows: weigh 0.1 g of the corrosion inhibitor respectively, and dissolve in 200 mL of 20% hydrochloric acid solution, stir and observe its dissolution. Prepare 20% hydrochloric acid solution system adding with iron ion stabilizer citric acid, clay stabilizer potassium chloride and discharge aiding agent OP-10 or fluorocarbon surfactant, respectively, and then weigh 0.1 g of the corrosion inhibitor and add them to the 20% hydrochloric acid solution system, to observe the compatibility.

[2] = 4 h corrosion weight loss test (corrosion inhibition performance); details: P110 carbon steel, 20% hydrochloric acid, 90° C., 1000 ppm corrosion inhibitor
Experimental: The corrosion inhibition performance of corrosion inhibitors in the embodiments 1 to 4 is determined by a 4 h corrosion weight loss test at 90° C. using 20% hydrochloric acid as a corrosive medium and P110 carbon steels. The amount of corrosion inhibitors is 1000 ppm.

[3] = 0.1 g corrosion inhibitor in 200 mL of 20% hydrochloric acid solution, stirred, dissolution observed

SMILES	Compatibility [1]	Inhibition rate [2]	Water solubility [3]
O=C(/C=C/c1ccccc1)CC(c1cccc(-c2cccs2)c1)[N+](Cc1ccccc1)(Cc1ccccc1)Cc1ccccc1 (stereo not drawn) [Embodiment 1]	Uniform and transparent, no	98.63%	Soluble reddish brown
O=C(CC(=C(c1ccccc1)c1ccccc1)c1ccccc1)CC(/C=C/c1ccccc1)[N+]1(Cc2ccc3ccccc3c2)CCCCC1C(c1ccccc1)c1ccccc1 (stereo not drawn) [Embodiment 2]	Uniform and transparent, no	97.96%	Soluble reddish brown
O=C(/C=C/c1ccccc1)CC(/C=C/c1ccccc1)[N+]1(C(c2ccccc2)(c2ccccc2)c2ccccc2)C=Cc2ccccc21 (stereo not drawn) [Embodiment 3]	Uniform and transparent, no	98.59%	Soluble reddish brown
CC(O)C[N+](Cc1ccc2ccccc2c1)(CC(C)O)C(CC(=O)CC(=C(c1ccccc1)c1ccccc1)c1ccccc1)c1cccc(-c2cccs2)c1 (stereo not drawn) [Embodiment 4]	Uniform and transparent, no	98.41%	Soluble reddish brown
